Read-outs that look alike come from different tables or passages of the source. One block for each compound: values may come before it.
Columns and labels:
[1] = system: IL-6; experiment: IL-6 ELISA in HIVIL (iKCs co-cultured with iHeps, LPS, 48 hr); assay type: cell-based, human; conditions: for IL-6 response: result in words; for IC50: Homo sapiens, LPS, 48 hr
Excerpt: Human iPSC cell line iPS (IMR90)-4 was purchased from WiCell Research Institute (Madison, WI), and maintained with a feeder-free method according to the instruction from […] Technologies (Vancouver, BC, Canada). The protocol of differentiation towards iKCs and iHeps as described previously with slight modification ([Tasnim et al., 2019]; [Cai et al., 2012]), respectively. […] More details are provided in Supplementary Methods. After differentiation, iKCs was harvested using 0.05 % trypsin-EDTA (Gibco, Waltham, Massachusetts, USA), while iHeps were dissociated with TrypLE^TM (Gibco). iHep suspension was further filtered through a 40 µm cell strainer to remove extracellular matrix clumps. Cell suspension was centrifuged at 1000 rpm for 5 min. For co-culture set up, tissue culture plates were coated with Rat tail collagen I (Gibco) diluted 100-fold in 0.02 N acetic acid, and incubated at 37 °C for 1 h and washed 3 times with PBS. According to the protocol optimized by [Tasnim et al. (2019)], iKCs was firstly seeded at a density of 14,000 per well on 96-well plate with Advanced DMEM (plus supplements) containing 5 % FBS. On the following day, iHeps were added at a density of 35,000 per well in Williams’ Medium E (plus supplements) (iHep: iKCs ratio = 2.5: 1). This reflects the physiological ratio of these cells in vivo under inflammatory conditions ([Tasnim et al., 2021]). Fresh media containing drugs was applied to co-cultures the next day. 50,000 cells were seeded to establish iHeps monoculture. THP-1 cells were kindly obtained from Dr. Eliza Fong and cultured as described by [Zeng et al. (2015)]. Details provided in Supplementary Methods.
(§1) Stock solutions of drugs were prepared in dimethyl sulfoxide (DMSO) and dissolved in medium prior to use. […] For these two drugs, the highest DMSO concentration was 1 %. Supernatant was collected at 48 hr for measurement of cytokines, and remaining cells were subjected to viability assay prior to lysis for RNA extraction.
Enzyme-linked immunosorbent assay (ELISA) for measurement of cytokines: Interleukin-6 (IL-6), interleukin-10 (IL-10) and tumor necrosis factor alpha (TNFα) levels in the media were measured using the corresponding human-based ELISA kits (Abcam, Cambridge, United Kingdom) according to manufacturer’s instructions. The cytokine production from dosed cells was normalized with the viability value from the same well. The normalized cytokine level upon drug treatments was further presented as percentage of DMSO+LPS. […] This normalization approach has been used in previous studies (Rose et al. 2016).

[2] = system: IL-10; experiment: IL-10 ELISA in HIVIL (iKCs co-cultured with iHeps, LPS, 48 hr); assay type: cell-based, human; conditions: result in words
Excerpt: Human iPSC cell line iPS (IMR90)-4 was purchased from WiCell Research Institute (Madison, WI), and maintained with a feeder-free method according to the instruction from […] Technologies (Vancouver, BC, Canada). The protocol of differentiation towards iKCs and iHeps as described previously with slight modification ([Tasnim et al., 2019]; [Cai et al., 2012]), respectively. […] More details are provided in Supplementary Methods. After differentiation, iKCs was harvested using 0.05 % trypsin-EDTA (Gibco, Waltham, Massachusetts, USA), while iHeps were dissociated with TrypLE^TM (Gibco). iHep suspension was further filtered through a 40 µm cell strainer to remove extracellular matrix clumps. Cell suspension was centrifuged at 1000 rpm for 5 min. For co-culture set up, tissue culture plates were coated with Rat tail collagen I (Gibco) diluted 100-fold in 0.02 N acetic acid, and incubated at 37 °C for 1 h and washed 3 times with PBS. […]
Enzyme-linked immunosorbent assay (ELISA) for measurement of cytokines: Interleukin-6 (IL-6), interleukin-10 (IL-10) and tumor necrosis factor alpha (TNFα) levels in the media were measured using the corresponding human-based ELISA kits (Abcam, Cambridge, United Kingdom) according to manufacturer’s instructions. […]

[3] = system: HIVIL (iKCs co-cultured with iHeps); experiment: AlamarBlue cell viability in HIVIL; conditions: for IC50: Homo sapiens
Description: as §1

[4] = system: IL-6; experiment: IL-6 response in HIVIL using THP-1 macrophages co-cultured with iHeps; assay type: cell-based, human; conditions: HIVIL with THP-1 instead of iKCs, result in words
Excerpt: Human iPSC cell line iPS (IMR90)-4 was purchased from WiCell Research Institute (Madison, WI), and maintained with a feeder-free method according to the instruction from […] Technologies (Vancouver, BC, Canada). The protocol of differentiation towards iKCs and iHeps as described previously with slight modification ([Tasnim et al., 2019]; [Cai et al., 2012]), respectively. The re-optimized protocol to generate iKCs is discussed in Results section. More details are provided in Supplementary Methods. After differentiation, iKCs was harvested using 0.05 % trypsin-EDTA (Gibco, Waltham, Massachusetts, USA), while iHeps were dissociated with TrypLE^TM (Gibco). iHep suspension was further filtered through a 40 µm cell strainer to remove extracellular matrix clumps. Cell suspension was centrifuged at 1000 rpm for 5 min. For co-culture set up, tissue culture plates were coated with Rat tail collagen I (Gibco) diluted 100-fold in 0.02 N acetic acid, and incubated at 37 °C for 1 h and washed 3 times with PBS. According to the protocol optimized by [Tasnim et al. (2019)], iKCs was firstly seeded at a density of 14,000 per well on 96-well plate with Advanced DMEM (plus supplements) containing 5 % FBS. On the following day, iHeps were added at a density of 35,000 per well in Williams’ Medium E (plus supplements) (iHep: iKCs ratio = 2.5: 1). This reflects the physiological ratio of these cells in vivo under inflammatory conditions ([Tasnim et al., 2021]). Fresh media containing drugs was applied to co-cultures the next day. 50,000 cells were seeded to establish iHeps monoculture. THP-1 cells were kindly obtained from Dr. Eliza Fong and cultured as described by [Zeng et al. (2015)]. Details provided in Supplementary Methods.
THP-1 maintenance and differentiation: THP-1 monocytic lineage was maintained in RPMI 1640 with 10% FBS. For differentiation to macrophages, suspension cells were collected and subjected to 2-day phorbol 12-myristate 13-acetate (PMA) treatment (50 ng/ml), followed by a 1-day PMA-free medium resting. THP-1 macrophages were trypsinzed and used for co-culture as described in Material and methods.
(§2) Enzyme-linked immunosorbent assay (ELISA) for measurement of cytokines: Interleukin-6 (IL-6), interleukin-10 (IL-10) and tumor necrosis factor alpha (TNFα) levels in the media were measured using the corresponding human-based ELISA kits (Abcam, Cambridge, United Kingdom) according to manufacturer’s instructions. The cytokine production from dosed cells was normalized with the viability value from the same well. The normalized cytokine level upon drug treatments was further presented as percentage of DMSO+LPS. Normalization to viability per well ensures that any changes in cytokines are not due to changes in cell numbers upon drug treatment and normalization to DMSO+LPS allows better comparison between different batches of experiments. This normalization approach has been used in previous studies (Rose et al. 2016).

[5] = system: IL-6; experiment: IL-6 ELISA in iPSC(F4)-derived HIVIL; assay type: cell-based, human; conditions: result in words
Description: as §2

[6] = Cammett et al. 2009, Mendes et al. 2014, cited from earlier work
[7] = system: IL-6; design: method as in Steuerwald et al. 2013; Mahdy et al. 2002; Kang et al. 2001; conditions: ref Steuerwald et al. 2013; Mahdy et al. 2002; Kang et al. 2001; cited from earlier work
[8] = system: IL-10; design: method as in Mahdy et al. 2002; conditions: ref Mahdy et al. 2002; cited from earlier work
[9] = system: PHH-PHKC co-culture; design: method as in Messner et al., 2013; Sarkar et al., 2017; conditions: ref Messner et al., 2013; Sarkar et al., 2017; cited from earlier work
[10] = system: PHH; design: method as in Mennecozzi et al., 2015; conditions: ref Mennecozzi et al., 2015; read-out: IC50 in PHH mono-cultures; cited from earlier work
[11] = system: iHeps mono-cultures; design: method as in Kia et al., 2015; conditions: ref Kia et al., 2015; cited from earlier work
[12] = FDA-labeling information; ref Chen et al. 2016; cited from earlier work
[13] = binary classification by human hepatotoxicity; ref Thakkar et al. 2020; cited from earlier work
[14] = system: IL-6; experiment: IL-6 production of iKC mono-culture; assay type: cell-based, human; conditions: result in words
Description: as §2

[15] = system: IL-10; design: method as in Bekker et al. 2016; conditions: ref Bekker et al. 2016; cited from earlier work
[16] = system: cytokines; design: method as in ref Ganey et al. 2004; Honarmand et al. 2012; Manna and Aggarwal 1999; Yao et al. 2004; conditions: ref Ganey et al. 2004; Honarmand et al. 2012; Manna and Aggarwal 1999; Yao et al. 2004; cited from earlier work
[17] = system: IL-6; conditions: other in vitro models deploying 1-10 μg/mL of LPS; ref Jiang et al. 2019; Li et al. 2020; cited from earlier work
[18] = 48 h, read-out: IC50: viability

IC50 ([1]; HIVIL): 112 µM
SMILES: O=C(O)Cc1ccccc1Nc1c(Cl)cccc1Cl [DIC, diclofenac]
IL-6 response ([1]; HIVIL): dose-dependent decrease
IL-10 response [2]: decrease
IC50 [3, 18]: 385 µM
IC50 ([3]; read-out: IC50 (drug toxicity) in HIVIL): 385 µM
drug-specific IL-6 response with THP-1 macrophages [4]: did not detect
IL-6 production [5]: Dose-dependent decrease
Cmax ([6]; ref in each cell: Ademisoye et al. 2018, Xu et al. 2008, Agabeyoglu and Incecayir 2009, Rojanasthien et al. 2007, Reunanen et al. 1992, Li et al. 2002, Hong-mei et al. 2013, Bareggi et al. 1987, Jiang et al. 2008): 8 µM
Cmax ([6]; ref in each cell: Xu et al. 2008): 8 µM
Reported human responses: IL-6 [7]: IL-6↓
Reported human responses: IL-10 [8]: IL-10↑
IC50 [9]: ~127 µM
IC50 [10]: ~1000 µM
IC50 [11]: ~1000 µM
DILIrank [12]: most
DILIst [13]: 1

SMILES: CC(=O)Nc1ccc(O)cc1 [APAP, acetaminophen]
reduction of IL-6 in HIVIL ([1]; 2 mM): ~50%
group by drug-dependent IL-6 production ([1]; HIVIL): dose-dependent inhibition
reduction of IL-6 ([1]; HIVIL): 50%
IL-6 response ([1]; HIVIL): decreased
IC50 ([1]; HIVIL): 5360 µM
IC50 [3, 18]: 10200 µM
viability profiles among iHeps, iKCs and HIVIL ([3]; comparison of mono-cultures and co-culture): similar
IL-6 production [5]: Dose-dependent decrease
IL-6 / cytokine production in iKC mono-culture [14]: remained unchanged
Reported in-vivo (murine) responses: IL-10 [15]: IL-10↓
Reported in-vivo (murine) responses: cytokines [16]: IL-6/IL-10 are protective factors
IL-6 change [17]: increased
DILIrank [12]: most

Source: article PMC13289212, “HIVIL: A human in vitro inflammatory liver model recapitulates immune-associated drug effects with high predictivity” (NAM journal, 2025)
